Entries after “also recorded” stand apart in the source; their conditions may differ.
Experiments:
Type in all cases: physicochemical
[1] = Dynamic Vapor Sorption (DVS) hygroscopicity; details: for total mass change between 0% and 90% relative humidity: DVS at 25° C., 0% to 90% RH; for hygroscopicity: DVS, 0% to 90% relative humidity; for XRPD pattern after adsorption/desorption cycles: after DVS
Protocol: Hygroscopicity was determined on a Surface Measurement Systems DVS. Typically a sample size of 5-30 mg was loaded into the DVS instrument sample pan and the sample was analyzed on a DVS automated sorption analyzer at 25° C. The relative humidity was increased from 0% to 90% RH at 10% RH step. The relative humidity was then decreased in a similar manner to accomplish a full adsorption/desorption cycle.

[2] = Equilibration (slurry) of solid forms in batch solvents, solid analyzed by XRPD
Protocol: Equilibration studies using single, binary and ternary combinations of batch solvents (water, acetone, and acetonitrile) were investigated to mimic key steps in manufacturing 3-(4-nitro-1-oxoisoindolin-2-yl)piperidine-2,6-dione. Materials of 3-(4-nitro-1-oxoisoindolin-2-yl)piperidine-2,6-dione and solvent or solvent mixtures were added to a glass vial to achieve free-flowing slurry and allowed to equilibrate at the specified temperature. […] The solid phase was then dried under air and analyzed by XRPD.
A total of four batches of 3-(4-nitro-1-oxoisoindolin-2-yl)piperidine-2,6-dione were characterized by XRPD, DSC, TGA, ATR-FTIR and DVS, as described in section 6.5. The solid form represented by the batch 1 was designated as Form A; the solid form represented by the batch 4 was designated as Form B; the batches 2 and 3 were determined to be mixtures of Forms A and B, with Form B dominating the patterns. The equilibration experiments were performed using batches 2, 3 and 4, and the results are described in Table 2.
(§1) All of the solid samples generated in the polymorph screen were analyzed by XRPD. XRPD analysis was conducted on a PANalytical Empyrean or a Thermo ARL X'TRA X-ray powder diffractometer using Cu Kα radiation at 1.54 Å.

[3] = Additional form conversion experiments (heating, slurry), XRPD
Protocol: as §1

| SMILES | total mass change between 0% and 90% relative humidity [1] [%] | hygroscopicity [1] | XRPD pattern after adsorption/desorption cycles [1] | conversion to other forms ([2]; form conversion studies) | relative thermodynamic stability of the form ([2]; form conversion studies) | XRPD Result ([3]; heated to 220° C. for 4 hours) | Form by XRPD ([2]; equilibration in acetone, ambient, 8 days) | Form by XRPD ([2]; equilibration in acetone/water (1:1), ambient, 8 days) | Form by XRPD ([2]; equilibration in acetonitrile, 80° C. (or reflux), 6 hours) | Form by XRPD ([2]; equilibration in acetonitrile/water (1:1), ambient, 8 days) | Form by XRPD ([2]; equilibration in acetonitrile/water (2:1), 60° C., 6 hours) | Form by XRPD ([2]; equilibration in acetonitrile/water/acetone (1:1:1), ambient, 8 days) | Form by XRPD ([2]; equilibration in water, ambient, 8 days) | form conversion ([3]; ambient temperature, NMP/acetone/water (1:2.5:2.5), time not stated) | XRPD Result ([3]; slurry in NMP/Acetone/water at ambient for 5 days) | XRPD Result ([3]; slurry in NMP/Acetone/water at ambient for 10 days) |
| --- | --- | --- | --- | --- | --- | --- | --- | --- | --- | --- | --- | --- | --- | --- | --- | --- |
| O=C1CCC(N2Cc3c(cccc3[N+](=O)[O-])C2=O)C(=O)N1 (single isomer, unassigned) [Form A, 3-(4-nitro-1-oxoisoindolin-2-yl)piperidine-2,6-dione] | 0.42 | not hygroscopic | no change | no conversion | most thermodynamically stable form |  |  |  |  |  |  |  |  |  |  |  |
| O=C1CCC(N2Cc3c(cccc3[N+](=O)[O-])C2=O)C(=O)N1 (single isomer, unassigned) [Form B, 3-(4-nitro-1-oxoisoindolin-2-yl)piperidine-2,6-dione] | 0.39 | not hygroscopic | no change |  |  | converts to Form A | converts to Form A | converts to Form A | converts to Form A | converts to Form A | converts to Form A | converts to Form A | converts to Form A |  |  |  |
| O=C1CCC(N2Cc3c(cccc3[N+](=O)[O-])C2=O)C(=O)N1 (single isomer, unassigned) [Form C, 3-(4-nitro-1-oxoisoindolin-2-yl)piperidine-2,6-dione] | 0.43 | not hygroscopic | no change |  |  | partially converts to Form A; also recorded: Form A + C |  |  |  |  |  |  |  | converts to Form A | Form A + C | Form A + C |
